Laboratory results from article PMC7925357 (European journal of medicinal chemistry, 2020).
Read-outs that look alike come from different tables or passages of the source.

How the values were obtained:
hM3Dq [1] = target: T1, hM3Dq (Homo sapiens, UniProt P20309, A239G/Y149C); details: read-out: hM3Dq EC50; DREADD agonist; cited from earlier work
hM3 = details: read-out: hM3 EC50; selectivity versus native hM3; cited from earlier work
hM3Dq [2] = target: T1, hM3Dq; experiment: PET imaging with [18F]7b in transgenic mice expressing hM3Dq; format: in vivo, mouse
hM3Dq [3] = target: T1, hM3Dq; experiment: [3H]CLZ competition binding, membranes of HEK293 cells transfected with hM3Dq
hM4Di [4] = target: T2, hM4Di (Homo sapiens, UniProt P08173, A203G/Y113C); experiment: [3H]CLZ competition binding, membranes of HEK293 cells transfected with hM4Di
T2 sequence (P08173 1-479 Y113C/A203G): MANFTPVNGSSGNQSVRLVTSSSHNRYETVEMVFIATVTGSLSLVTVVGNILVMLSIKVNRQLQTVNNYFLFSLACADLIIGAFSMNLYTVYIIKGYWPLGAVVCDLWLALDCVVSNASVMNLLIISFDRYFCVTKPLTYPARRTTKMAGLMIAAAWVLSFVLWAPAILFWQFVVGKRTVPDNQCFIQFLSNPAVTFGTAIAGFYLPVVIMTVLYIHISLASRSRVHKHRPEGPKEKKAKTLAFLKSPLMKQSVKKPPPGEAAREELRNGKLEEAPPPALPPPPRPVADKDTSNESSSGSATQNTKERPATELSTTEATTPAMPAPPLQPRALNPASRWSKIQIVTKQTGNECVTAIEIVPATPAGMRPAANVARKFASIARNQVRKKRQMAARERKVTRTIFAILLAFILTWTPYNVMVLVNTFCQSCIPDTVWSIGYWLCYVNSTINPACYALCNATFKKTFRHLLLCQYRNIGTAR

hM3Dq [5] = target: T1, hM3Dq; details: read-out: Ki, nM hM3Dq; printed without SD; cited from earlier work
hM4Di [6] = target: T2, hM4Di; details: read-out: Ki, nM hM4Di; printed without SD; cited from earlier work
hM3Dq [7] = target: T1, hM3Dq; details: hM3Dq Tg mice; cited from earlier work
wild-type mouse brain = experiment: PET imaging with [18F]7b in wild-type mouse; details: wild-type mouse lacking DREADD expression
[8] = at 50–60 min after injection, transgenic hM3Dq mice
[9] = baseline, cerebellum as reference tissue

T1 sequence (P20309 whole entry Y149C/A239G): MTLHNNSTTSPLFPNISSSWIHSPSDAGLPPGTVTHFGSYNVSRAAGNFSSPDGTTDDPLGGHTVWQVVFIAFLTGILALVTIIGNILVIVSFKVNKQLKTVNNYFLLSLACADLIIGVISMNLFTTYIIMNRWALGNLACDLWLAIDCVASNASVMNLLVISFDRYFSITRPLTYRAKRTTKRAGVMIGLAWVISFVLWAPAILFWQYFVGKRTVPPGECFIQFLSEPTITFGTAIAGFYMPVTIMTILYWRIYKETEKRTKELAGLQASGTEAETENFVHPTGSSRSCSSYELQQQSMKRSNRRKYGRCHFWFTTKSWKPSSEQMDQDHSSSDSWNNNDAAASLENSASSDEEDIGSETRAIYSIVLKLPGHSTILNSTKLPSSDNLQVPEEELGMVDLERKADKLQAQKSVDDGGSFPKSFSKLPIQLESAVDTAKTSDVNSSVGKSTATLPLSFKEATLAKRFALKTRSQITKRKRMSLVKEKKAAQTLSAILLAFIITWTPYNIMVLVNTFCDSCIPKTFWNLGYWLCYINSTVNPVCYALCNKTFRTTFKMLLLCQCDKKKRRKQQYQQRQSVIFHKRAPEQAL

## CCN1CCN(C2=Nc3cc(Cl)ccc3Nc3ccccc32)CC1 [Compound 1, 8-chloro-11-(4-ethylpiperazin-1-yl)-5H-dibenzo[b,e][1,4]diazepine]
hM3Dq [1]
  EC50: 1.3 nM
hM3
  EC50: > 30000 nM

## CCN1CCN(C2=Nc3cc(Cl)ccc3Nc3c(F)cccc32)CC1 [Compound 7d, 8-Chloro-11-(4-ethylpiperazin-1-yl)-4-fluoro-5H-dibenzo[b,e][1,4]diazepine]
hM3Dq [2]; 7d as blocker, dose escalation
  blocking effect on [18F]7b in the cerebellum: insignificant
hM3Dq [2]; 7d as blocker, dose escalation up to 0.5 mg/kg
  blocking of [18F]7b binding potential in the cortex versus baseline: significant only at the highest dose of blocker

## CCN1CCN(C2=Nc3cc(Cl)ccc3Nc3c(F)cc(F)cc32)CC1 [Compound 7h, 8-Chloro-11-(4-ethylpiperazin-1-yl)-2,4-difluoro-5H-dibenzo[b,e][1,4]diazepine]
hM3Dq [3]
  Ki: 8.1 ± 0.9 nM
hM4Di [4]
  Ki: 18.1 ± 5.4 nM

## CN1CCN(C2=Nc3ccccc3Nc3ccccc32)CC1 [DCZ, deschloroclozapine]
hM3Dq [5]
  Ki: 6.3 nM
hM4Di [6]
  Ki: 4.2 nM

## [11CH3]N1CCN(C2=Nc3ccccc3Nc3ccccc32)CC1 [[^11C]DCZ, [^11C]deschloroclozapine]
hM3Dq [7]
  STR/CB ratio value: 2.7

## CCN1CCN(C2=Nc3ccccc3Nc3ccc([18F])cc32)CC1 [[^18F]7b, 11-(4-Ethylpiperazin-1-yl)-2-[^18F]fluoro-5H-dibenzo[b,e][1,4]diazepine]
hM3Dq [2]; [8]
  maximum ratio of tissue to cerebellum, cortex: 1.8
  maximum ratio of tissue to cerebellum, striatum: 3.0
hM3Dq [2]; [9]
  binding potential BPND, cortex: 0.6
  binding potential BPND, striatum: 1.6
hM3Dq [2]; baseline, striatum, mean ± SD of 3, transgenic hM3Dq mice
  highest accumulation of radioactivity in the striatum (SUV): 1.93 ± 0.33 SUV
wild-type mouse brain
  accumulation of radioactivity in the brain: low accumulation of radioactivity in the brain
